Experimental findings from patent publication US4537723A, “Derivatives of leukotrienes A and C” (The Upjohn Company, priority 1983, dated 1985) are described below.

Molecules are shown by their SMILES.

The test system of the assay is SRS-A formation in rat mononuclear cells. In words: SRS-A formation in rat mononuclear cells incubated with cysteine and challenged with a calcium ionophore. The format is cell-based. The following applies: 10 μg/ml; for inhibition at 10 µg/mL: Rattus norvegicus, read-out: effectiveness in preventing the synthesis of SRS-A. As to the method: As an example of the SRS-A inhibitory activity of the compounds of this invention, several of these compounds were evaluated in a standard laboratory test. This test is conducted in rat mononuclear cells incubated in the presence of cysteine and challenged with a calcium ionophore (which induces SRS-A formation). In this test system, two of these compounds, the isomers of 1-carboxy-3-N-octylcyclopropane-2-octanoic acid.

`CCCCCCCCC([Se]c1ccccc1)C(O)CCCCCCCC(=O)O` (stereo not drawn) [9-Hydroxy-10-Phenylselenyloctadecanoic Acid]: the inhibition at 10 µg/mL stood at 100%.
For the molecule `CCCCCCCCC(O)C(CCCCCCCC(=O)O)[Se]c1ccccc1` (stereo not drawn) [9-Phenylselenyl-10-Hydroxyoctadecanoic Acid], the inhibition at 10 µg/mL turned out to be 100%.
Take `CCCCCCCCC1C(CCCCCCCC(=O)O)C1C(=O)O` (stereo not drawn) [Example 4, 1-Carboxy-3-n-Octylcyclopropane-2-Octanoic Acid]: the “inhibition of the synthesis of SRS-A” value (rat mononuclear cells, calcium ionophore challenge) is reported as “totally inhibited”.
